Results: patent US20120027720A1, “PEPTIDE CONJUGATES” (priority 2008, published 2012)
*1 amine or outer side, *2 acyl side, *3 side chain or, on linkers, in order; H or OH if unused. Where no end group is shown, it is not given here. [ ]: non-standard residue; d: D form. Pen(Acm) = L-S-acetamidomethyl-penicillamine, CC(=O)NCSC(C)(C)[C@H](N[*:1])C(=O)[*:2]; Cys(Bzl) = L-S-benzyl-cysteine, O=C([C@H](CSCc1ccccc1)N[*:1])[*:2]; Phe(4-NO2) = N[C@@H](Cc1ccc([N+](=O)[O-])cc1)C(=O)O; Tic = O=C(O)[C@@H]1Cc2ccccc2CN1; 2Thi = N[C@@H](Cc1cccs1)C(=O)O; Cit = NC(=O)NCCC[C@H](N)C(=O)O; AllylGly = C=CC[C@H](N)C(=O)O; hSer = N[C@@H](CCO)C(=O)O; βAla = NCCC(=O)O

How the values were obtained:
CaCo2 monolayers [1] = test: Trans Epithelial Electric Resistance (TEER) across cell monolayer; format: cell-based; design: key to Reduced TEER: + indicates an enhancement of the permeability of the tight junctions were observed; − indicates no enhancement of permeability was observed; conditions: Caco-2 monolayer
Source text: (§1) Agonists of tight junctions can be identified by their ability to enhance the flux of compounds (e.g. ions, Lucifer Yellow) through a cell monolayer that comprises tight junctions; or by their ability to reduce TEER across a cell monolayer that comprises tight junctions. Treatment of CaCo2 monolayers with peptide FCIGRL (SEQ ID NO: 1) led to a 51-fold enhancement of Lucifer Yellow permeability through CaCo2 monolayers compared to vehicle alone. Treatment of CaCo2 monolayers with peptide FCIGRL led to a 16-fold decrease in TEER across CaCo2 monolayers compared to vehicle alone.
(§2) Determination of TEER and Lucifer Yellow Flux
(§3) Prepare Modified Hank's Balanced Salt Solution (MHBSS) by obtaining 1 L bottle of HBSS removing 10 ml of HBSS and replacing it with 10 ml HEPES buffer pH 7.0. Adjust pH to 7.4±0.1 using concentrated NaOH (10N).
(§4) Remove Caco-2 cells from incubator, grown on 12-well, […], polycarbonate Transwell® filters (Corning) and record passage#, date cells seeded and age in days.
(§5) Aspirate cell culture medium from both the apical (AP) and basolateral (BL) compartments, replacing with 0.5 ml and 1.5 ml of MHBSS, respectively. Incubate cells at 37° C. for 30 minutes.
Using the MilliCell®-ERS instrument (Millipore), measure and record the transepithelial electrical resistance (TEER) across each filter and record.
(§6) Aspirate solution from the apical compartment of each filter (n=3 per condition) and replace with 0.5 ml of control and test solutions containing Lucifer Yellow and test compound if appropriate.
(§7) Place all plates into incubator set at 37° C. (±0.2), 50 RPM (±5) for a total of 180 minutes.
At t=30, 60, 120 and 180 minutes, measure and record the transepithelial electrical resistance (TEER) across each filter using the MilliCell-ERS instrument.
(§8) Cells: Caco-2 cells passage 40-60 grown on Transwell® plates for 21-28 days
(§9) Culture Medium: DMEM supplemented with 10% fetal bovine serum, 1% NEAA, 1% Penn/Strep
(§10) Buffers: Hank's Balanced Salt Solution (HBSS) without calcium and magnesium
(§11) Flasks: 100×20 mm Tissue culture dish Falcon.
(§12) Plates: 12 well polycarbonate Transwell® filters; 0.3 uM pore size

CaCo2 monolayers [2] = test: Epithelial flux of Lucifer Yellow through cell monolayer; format: cell-based; design: key to Enhanced LY permeability: + indicates an enhancement of the permeability of the tight junctions were observed; − indicates no enhancement of permeability was observed; conditions: Lucifer Yellow flux, Caco-2 monolayer
Source text: as §1, §2, §3, §4, §5, §6, §7
At t=60, 120 and 180 minutes remove 100 μl from each basolateral compartment and place it in a 96-well plate for Lucifer Yellow analysis, replace with 100 μl of MHBSS.
Make a Lucifer Yellow standard curve with the following dilutions (7500 μM, 3750 μM, 750 μM, 375 μM, 75 μM, 37.5 μM, 7.5 μM, 3.75 μM, 0.75 μM) and pipette […] of each into a 96-well plate except for the first three standards mentioned above which require a 1:10 dilutions prior to transferring to the 96-well plate.
Harvest the remaining start solutions and what is left in each apical compartment into 1.5 ml vials. Freeze at −20° C. for future analysis.
Analyze each 96-well plate in a Tecan Spectra Fluor Plus using Magellan at 485 and 535 nm.
as §8, §9, §10, §11, §12

| Substance | Reduced TEER (CaCo2 monolayers [1]) | Enhanced LY permeability (CaCo2 monolayers [2]) |
| --- | --- | --- |
| 140 (H-F[2Thi]IGRL-OH; SMILES CC[C@H](C)[C@H](NC(=O)[C@H](Cc1cccs1)NC(=O)[C@@H](N)Cc1ccccc1)C(=O)NCC(=O)N[C@@H](CCCNC(=N)N)C(=O)N[C@@H](CC(C)C)C(=O)O) [compound 140] | − | − |
| 138 (LRGILF-NH2; also: peptide conjugate) [compound 138] | + | + |
| 189 (S[AllylGly]IGRL-NH2; N-terminus assumed; SMILES C=CC[C@H](NC(=O)[C@@H](N)CO)C(=O)N[C@H](C(=O)NCC(=O)N[C@@H](CCCNC(=N)N)C(=O)N[C@@H](CC(C)C)C(N)=O)[C@@H](C)CC) [compound 189] | − | − |
| 193 (Y[AllylGly]IGRL-NH2; N-terminus assumed; SMILES C=CC[C@H](NC(=O)[C@@H](N)Cc1ccc(O)cc1)C(=O)N[C@H](C(=O)NCC(=O)N[C@@H](CCCNC(=N)N)C(=O)N[C@@H](CC(C)C)C(N)=O)[C@@H](C)CC) [compound 193] | − | − |
| 134 (FLIGRL; also: peptide conjugate) [compound 134] | − | − |
| 63 (H-FCIGRF-OH; not fully specified) [compound 63] | + | + |
| 119 (FFIGRL; also: peptide conjugate) [compound 119] | + | − |
| 30 ([dF][dC][dI]G[dR]L; not fully specified) [compound 30] | + | + |
| 96 (H-FCIGR[βAla]-OH; SMILES CC[C@H](C)[C@H](NC(=O)[C@H](CS)NC(=O)[C@@H](N)Cc1ccccc1)C(=O)NCC(=O)N[C@@H](CCCNC(=N)N)C(=O)NCCC(=O)O) [compound 96] | + | + |
| 75 (Ac-ACIGRL; not fully specified; printed as Ac-Ala-Cys-Ile-Gly-Arg-Leu) [compound 75] | + | + |
| 194 (G[AllylGly]IGRL-NH2; N-terminus assumed; SMILES C=CC[C@H](NC(=O)CN)C(=O)N[C@H](C(=O)NCC(=O)N[C@@H](CCCNC(=N)N)C(=O)N[C@@H](CC(C)C)C(N)=O)[C@@H](C)CC) [compound 194] | − | − |
| 210 (F[AllylGly]GGRL-NH2; N-terminus assumed; SMILES C=CC[C@H](NC(=O)[C@@H](N)Cc1ccccc1)C(=O)NCC(=O)NCC(=O)N[C@@H](CCCNC(=N)N)C(=O)N[C@@H](CC(C)C)C(N)=O) [compound 210] | + | + |
| 150 (Ac-F[hSer]IGRF; also: peptide conjugate) [compound 150] | + | + |
| 31 ([dF][dC][dI]GR[dL]; not fully specified) [compound 31] | − | − |
| 136 (FIIGRL; also: peptide conjugate) [compound 136] | + | + |
| 38 ([dL][dR]GIC[dF]; not fully specified) [compound 38] | − | − |
| 161 (F[Pen(Acm)]IGRL; also: peptide conjugate) [compound 161] | + | + |
| 12 ([dF]CIGRL; also: peptide conjugate) [compound 12] | + | + |
| 117 (FLIGRL-NH2; also: peptide conjugate) [compound 117] | − | − |
| 175 (F[L‑beta‑cyclopropyl‑alanine]IGRL; also: peptide conjugate) [compound 175] | − | − |

| Substance | Reduced TEER (CaCo2 monolayers [1]) | Enhanced LY permeability (CaCo2 monolayers [2]) |
| --- | --- | --- |
| 130 (FEIGRL; also: peptide conjugate) [compound 130] | − | − |
| 123 (FPIGRL; also: peptide conjugate) [compound 123] | − | − |
| 152 (F[Cys(Bzl)]IGRL; also: peptide conjugate, Xaa: 'may be' L-S-benzyl-cysteine) [compound 152] | − | − |
| 200 (P[AllylGly]IGRL-NH2; N-terminus assumed; SMILES C=CC[C@H](NC(=O)[C@@H]1CCCN1)C(=O)N[C@H](C(=O)NCC(=O)N[C@@H](CCCNC(=N)N)C(=O)N[C@@H](CC(C)C)C(N)=O)[C@@H](C)CC) [compound 200] | − | − |
| 224 (F[AllylGly]IPRL-NH2; N-terminus assumed; SMILES C=CC[C@H](NC(=O)[C@@H](N)Cc1ccccc1)C(=O)N[C@H](C(=O)N1CCC[C@H]1C(=O)N[C@@H](CCCNC(=N)N)C(=O)N[C@@H](CC(C)C)C(N)=O)[C@@H](C)CC) [compound 224] | − | − |
| 141 (H-F[hSer]IGRL-OH; SMILES CC[C@H](C)[C@H](NC(=O)[C@H](CCO)NC(=O)[C@@H](N)Cc1ccccc1)C(=O)NCC(=O)N[C@@H](CCCNC(=N)N)C(=O)N[C@@H](CC(C)C)C(=O)O) [compound 141] |  | + |
| 116 (FMIGRL; also: peptide conjugate) [compound 116] | − | − |
| 126 (FFIGRL-NH2; also: peptide conjugate) [compound 126] | + | + |
| 196 (W[AllylGly]IGRL-NH2; N-terminus assumed; SMILES C=CC[C@H](NC(=O)[C@@H](N)Cc1c[nH]c2ccccc12)C(=O)N[C@H](C(=O)NCC(=O)N[C@@H](CCCNC(=N)N)C(=O)N[C@@H](CC(C)C)C(N)=O)[C@@H](C)CC) [compound 196] | − | + |
| 124 (FDIGRL; also: peptide conjugate) [compound 124] | − | − |
| 34 (F[dC][dI]G[dR][dL]; not fully specified) [compound 34] | − | − |
| 148 (Ac-F[hSer]IGRA; also: peptide conjugate) [compound 148] | + | + |
| 1 (FCIGRL; not fully specified) [compound 1] | + | + |
| 125 (FLIGRL-NH2; also: peptide conjugate) [compound 125] | + | + |
| 69 (H-FCIGRLC-OH; not fully specified; cysteine pairing not given here) [compound 69] | − |  |
| 105 ([Phe(4-NO2)]CIGRL) [compound 105] | − |  |
| 77 (Ac-ACIGRS; not fully specified; printed as Ac-Ala-Cys-Ile-Gly-Arg-Ser) [compound 77] | − |  |
| 109 ([Tic]CIGRL) [compound 109] | − |  |
| 104 (FCIG[Cit]L) [compound 104] | − |  |
